Assay results as given in BindingDB's records for doi:10.1016/j.bmcl.2006.12.054 (Cephalon, 2007).

Molecular target: Vascular endothelial growth factor receptor 2 (Homo sapiens, UniProt P35968)
Assay: Inhibition of human cytoplasmic VEGFR2 expressed in baculovirus after 15 mins by time resolved fluorescence assay

Sequence of Vascular endothelial growth factor receptor 2 (P35968 whole entry): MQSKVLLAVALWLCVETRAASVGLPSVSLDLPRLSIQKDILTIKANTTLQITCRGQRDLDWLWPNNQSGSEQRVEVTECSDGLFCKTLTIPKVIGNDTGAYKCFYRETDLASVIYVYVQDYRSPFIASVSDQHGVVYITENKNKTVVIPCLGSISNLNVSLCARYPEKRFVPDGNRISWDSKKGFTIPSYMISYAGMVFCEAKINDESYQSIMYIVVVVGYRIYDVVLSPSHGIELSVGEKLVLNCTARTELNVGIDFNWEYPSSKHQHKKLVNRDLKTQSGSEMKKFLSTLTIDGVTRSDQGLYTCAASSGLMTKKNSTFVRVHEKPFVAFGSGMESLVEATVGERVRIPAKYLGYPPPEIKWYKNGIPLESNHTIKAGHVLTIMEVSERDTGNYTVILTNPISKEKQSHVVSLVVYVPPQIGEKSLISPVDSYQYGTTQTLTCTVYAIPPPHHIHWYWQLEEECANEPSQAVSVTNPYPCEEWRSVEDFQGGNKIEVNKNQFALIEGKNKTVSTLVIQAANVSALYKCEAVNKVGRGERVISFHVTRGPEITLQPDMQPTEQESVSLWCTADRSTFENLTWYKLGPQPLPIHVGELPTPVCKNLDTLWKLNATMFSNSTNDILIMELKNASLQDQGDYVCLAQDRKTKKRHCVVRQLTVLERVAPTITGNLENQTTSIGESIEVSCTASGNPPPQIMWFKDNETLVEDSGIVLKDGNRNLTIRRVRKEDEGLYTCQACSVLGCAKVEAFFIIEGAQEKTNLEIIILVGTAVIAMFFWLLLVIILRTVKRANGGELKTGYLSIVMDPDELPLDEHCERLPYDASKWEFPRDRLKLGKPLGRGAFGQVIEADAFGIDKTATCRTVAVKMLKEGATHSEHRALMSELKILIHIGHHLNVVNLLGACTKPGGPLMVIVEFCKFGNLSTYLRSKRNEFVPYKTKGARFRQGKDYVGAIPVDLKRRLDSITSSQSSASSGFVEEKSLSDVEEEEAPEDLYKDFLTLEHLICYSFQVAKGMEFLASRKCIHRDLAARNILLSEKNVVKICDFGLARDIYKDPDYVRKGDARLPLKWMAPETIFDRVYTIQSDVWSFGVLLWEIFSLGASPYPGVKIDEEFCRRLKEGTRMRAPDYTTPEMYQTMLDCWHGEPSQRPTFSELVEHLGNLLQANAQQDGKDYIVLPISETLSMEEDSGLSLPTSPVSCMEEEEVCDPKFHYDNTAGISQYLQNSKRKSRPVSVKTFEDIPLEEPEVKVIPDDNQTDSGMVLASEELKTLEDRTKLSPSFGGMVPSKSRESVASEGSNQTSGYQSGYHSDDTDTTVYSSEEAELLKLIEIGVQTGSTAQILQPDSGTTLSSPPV

SMILES | IC50 [µM]
C=c1nns/c1=c1\[nH][nH]c(=O)c1=Cc1cn(C)c2ccc(C#N)cc12 [1-methyl-3-((3-(4-methyl-1,2,3-thiadiazol-5-yl)-5-oxo-1H-pyrazol-4(5H)-ylidene)methyl)-1H-indole-5-carbonitrile] | > 0.3
C=c1nns/c1=c1\[nH][nH]c(=O)c1=Cc1c[nH]c2ccc(Cl)cc12 [4-((5-chloro-1H-indol-3-yl)methylene)-3-(4-methyl-1,2,3-thiadiazol-5-yl)-1H-pyrazol-5(4H)-one] | > 0.3
